# Measured values reported in patent publication US7851474B2, “Dipiperazinyl ketones and related analogues” (Neurogen Corporation, priority 2005, dated 2010).
# Biological target: T1, chimeric human H3 receptor (Homo sapiens, UniProt Q9Y5N1, E19D)
# T1 construct: made in house; host or cells: Sf9 insect cells (baculovirus infection); P2 membrane preparation
# Test: Chimeric human H3 receptor screening GTP binding assay (inhibition of histamine-stimulated GTP-gamma35S binding, Example 8)
# Type: biochemical
# Details: 1 h; "+" in Ki of Table II; assay of Example 8; read-out: percent inhibition of agonist-induced GTP-gammaS binding to H3
# How it was run: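 Sf9 membranes co-expressing the chimeric receptor and a heterotrimeric G-protein (35 μg protein) in Tris pH 7.4 buffer with 10 μM GDP; compound at 4 μM plus 1 μM histamine, 125 pM GTP-gamma35S, 60 min at room temperature. Filter-bound radioactivity read; non-specific binding defined with 10 uM GTP-gammaS; percent inhibition of histamine signal.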
# T1 sequence (Q9Y5N1 with tags, fused parts or gaps E19D): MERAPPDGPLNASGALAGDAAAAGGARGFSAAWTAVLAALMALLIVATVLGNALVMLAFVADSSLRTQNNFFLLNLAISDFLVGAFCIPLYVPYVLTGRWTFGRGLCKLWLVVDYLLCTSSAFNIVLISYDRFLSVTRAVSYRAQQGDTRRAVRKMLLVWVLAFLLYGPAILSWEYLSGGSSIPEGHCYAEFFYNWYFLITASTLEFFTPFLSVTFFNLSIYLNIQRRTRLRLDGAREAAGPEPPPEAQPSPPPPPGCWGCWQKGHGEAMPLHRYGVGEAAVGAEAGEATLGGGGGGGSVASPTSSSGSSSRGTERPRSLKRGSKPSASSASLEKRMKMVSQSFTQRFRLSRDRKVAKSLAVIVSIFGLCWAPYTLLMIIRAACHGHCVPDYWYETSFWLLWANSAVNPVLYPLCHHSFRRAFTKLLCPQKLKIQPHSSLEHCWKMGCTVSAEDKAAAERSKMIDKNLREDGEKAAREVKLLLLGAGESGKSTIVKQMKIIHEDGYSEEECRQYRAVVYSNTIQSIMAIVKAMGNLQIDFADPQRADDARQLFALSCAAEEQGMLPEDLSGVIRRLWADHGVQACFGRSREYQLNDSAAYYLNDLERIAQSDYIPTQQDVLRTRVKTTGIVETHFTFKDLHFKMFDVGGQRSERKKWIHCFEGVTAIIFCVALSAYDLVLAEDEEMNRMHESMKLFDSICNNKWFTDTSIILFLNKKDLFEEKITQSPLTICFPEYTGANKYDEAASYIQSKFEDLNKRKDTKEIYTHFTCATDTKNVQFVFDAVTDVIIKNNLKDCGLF
row,SMILES,inhibition at 4 µM [%]
1,"Cc1cccc(CC(=O)N2CCN(CC(=O)N3CCN(C4CCC4)CC3)CC2)c1 [Compound 555, 1-cyclobutyl-4-({4-[(3-methylphenyl)acetyl]piperazin-1-yl}acetyl)piperazine]",> 90
2,"O=C(Cc1cccc(Oc2ccccc2)c1)N1CCN(CC(=O)N2CCN(C3CCC3)CC2)CC1 [Compound 556, 1-cyclobutyl-4-({4-[(3-phenoxyphenyl)acetyl]piperazin-1-yl}acetyl)piperazine]",> 90
3,"CCOc1ccc(CC(=O)N2CCN(CC(=O)N3CCN(C4CCC4)CC3)CC2)cc1OC [Compound 557, 1-cyclobutyl-4-({4-[(4-ethoxy-3-methoxyphenyl)acetyl]piperazin-1-yl}acetyl)piperazine]",> 90
4,"O=C(COc1ccc(F)cc1)N1CCN(CC(=O)N2CCN(C3CCC3)CC2)CC1 [Compound 558, 1-cyclobutyl-4-({4-[(4-fluorophenoxy)acetyl]piperazin-1-yl}acetyl)piperazine]",> 90
5,"O=C(Cc1ccc(F)cc1)N1CCN(CC(=O)N2CCN(C3CCC3)CC2)CC1 [Compound 559, 1-cyclobutyl-4-({4-[(4-fluorophenyl)acetyl]piperazin-1-yl}acetyl)piperazine]",> 90
6,"CC(C)c1ccc(CC(=O)N2CCN(CC(=O)N3CCN(C4CCC4)CC3)CC2)cc1 [Compound 560, 1-cyclobutyl-4-({4-[(4-isopropylphenyl)acetyl]piperazin-1-yl}acetyl)piperazine]",> 90
7,"COc1cscc1C(=O)N1CCN(CC(=O)N2CCN(C3CCC3)CC2)CC1 [Compound 561, 1-cyclobutyl-4-({4-[(4-methoxy-3-thienyl)carbonyl]piperazin-1-yl}acetyl)piperazine]",> 90
8,"COc1ccc(OCC(=O)N2CCN(CC(=O)N3CCN(C4CCC4)CC3)CC2)cc1 [Compound 562, 1-cyclobutyl-4-({4-[(4-methoxyphenoxy)acetyl]piperazin-1-yl}acetyl)piperazine]",> 90
9,"COc1ccc(CC(=O)N2CCN(CC(=O)N3CCN(C4CCC4)CC3)CC2)cc1 [Compound 563, 1-cyclobutyl-4-({4-[(4-methoxyphenyl)acetyl]piperazin-1-yl}acetyl)piperazine]",> 90
10,"Cc1nnsc1C(=O)N1CCN(CC(=O)N2CCN(C3CCC3)CC2)CC1 [Compound 564, 1-cyclobutyl-4-({4-[(4-methyl-1,2,3-thiadiazol-5-yl)carbonyl]piperazin-1-yl}acetyl)piperazine]",> 90
11,"Cc1ccc(C(C(=O)N2CCN(CC(=O)N3CCN(C4CCC4)CC3)CC2)c2ccccc2)cc1 (stereo not drawn) [Compound 565, 1-cyclobutyl-4-({4-[(4-methylphenyl)(phenyl)acetyl]piperazin-1-yl}acetyl)piperazine]",> 90
12,"Cc1ccc(CC(=O)N2CCN(CC(=O)N3CCN(C4CCC4)CC3)CC2)cc1 [Compound 566, 1-cyclobutyl-4-({4-[(4-methylphenyl)acetyl]piperazin-1-yl}acetyl)piperazine]",> 90
13,"O=C(Cc1ccc(Oc2ccccc2)cc1)N1CCN(CC(=O)N2CCN(C3CCC3)CC2)CC1 [Compound 567, 1-cyclobutyl-4-({4-[(4-phenoxyphenyl)acetyl]piperazin-1-yl}acetyl)piperazine]",> 90
14,"CCc1ccc(C(=O)N2CCN(CC(=O)N3CCN(C4CCC4)CC3)CC2)s1 [Compound 568, 1-cyclobutyl-4-({4-[(5-ethyl-2-thienyl)carbonyl]piperazin-1-yl}acetyl)piperazine]",> 90
15,"Cc1c(C(=O)N2CCN(CC(=O)N3CCN(C4CCC4)CC3)CC2)cnn1-c1ccccc1 [Compound 569, 1-cyclobutyl-4-({4-[(5-methyl-1-phenyl-1H-pyrazol-4-yl)carbonyl]piperazin-1-yl}acetyl)piperazine]",> 90
16,"Cc1ccc(C(=O)N2CCN(CC(=O)N3CCN(C4CCC4)CC3)CC2)s1 [Compound 570, 1-cyclobutyl-4-({4-[(5-methyl-2-thienyl)carbonyl]piperazin-1-yl}acetyl)piperazine]",> 90
17,"CC(Oc1ccc(Cl)cc1Cl)C(=O)N1CCN(CC(=O)N2CCN(C3CCC3)CC2)CC1 (stereo not drawn) [Compound 572, 1-cyclobutyl-4-({4-[2-(2,4-dichlorophenoxy)propanoyl]piperazin-1-yl}acetyl)piperazine]",> 90

# Same assay, conditions: 1 h; Table II, "+" in the column headed Ki; assay of Example 8; read-out: percent inhibition of agonist-induced GTP-gammaS binding to H3
row,SMILES,inhibition at 4 µM [%]
1,"O=C(CN1CCN(C(=O)c2ccccc2CCc2ccccc2)CC1)N1CCN(C2CCC2)CC1 [Compound 574, 1-cyclobutyl-4-({4-[2-(2-phenylethyl)benzoyl]piperazin-1-yl}acetyl)piperazine]",> 90
2,"CCC(C(=O)N1CCN(CC(=O)N2CCN(C3CCC3)CC2)CC1)c1ccc(OC)cc1 (stereo not drawn) [Compound 575, 1-cyclobutyl-4-({4-[2-(4-methoxyphenyl)butanoyl]piperazin-1-yl}acetyl)piperazine]",> 90
3,Cc1ccc(Oc2ccccc2C(=O)N2CCN(CC(=O)N3CCN(C4CCC4)CC3)CC2)cc1 [Compound 576],> 90
4,"CSc1ccccc1C(=O)N1CCN(CC(=O)N2CCN(C3CCC3)CC2)CC1 [Compound 577, 1-cyclobutyl-4-({4-[2-(methylthio)benzoyl]piperazin-1-yl}acetyl)piperazine]",> 90
5,"O=C(CN1CCN(C(=O)c2ccccc2OC(F)(F)F)CC1)N1CCN(C2CCC2)CC1 [Compound 578, 1-cyclobutyl-4-({4-[2-(trifluoromethoxy)benzoyl]piperazin-1-yl}acetyl)piperazine]",> 90
6,"O=C(CN1CCN(C(=O)c2ccccc2C(F)(F)F)CC1)N1CCN(C2CCC2)CC1 [Compound 579, 1-cyclobutyl-4-({4-[2-(trifluoromethyl)benzoyl]piperazin-1-yl}acetyl)piperazine]",> 90
7,O=C(CN1CCN(C(=O)c2c(F)cccc2C(F)(F)F)CC1)N1CCN(C2CCC2)CC1 [Compound 582],> 90
8,"O=C(CN1CCN(C(=O)c2cccc(C(F)(F)F)c2)CC1)N1CCN(C2CCC2)CC1 [Compound 588, 1-cyclobutyl-4-({4-[3-(trifluoromethyl)benzoyl]piperazin-1-yl}acetyl)piperazine]",> 90
9,"Cc1ccccc1C(C(=O)N1CCN(CC(=O)N2CCN(C3CCC3)CC2)CC1)C(C)C (stereo not drawn) [Compound 591, 1-cyclobutyl-4-({4-[3-methyl-2-(2-methylphenyl)butanoyl]piperazin-1-yl}acetyl)piperazine]",> 90

# The next lines start with the values.
row,inhibition at 4 µM [%],SMILES
1,> 90,"O=C(CN1CCN(C(=O)c2ccc(OC(F)F)cc2)CC1)N1CCN(C2CCC2)CC1 [Compound 596, 1-cyclobutyl-4-({4-[4-(difluoromethoxy)benzoyl]piperazin-1-yl}acetyl)piperazine]"
2,> 90,"CCSc1ccc(C(=O)N2CCN(CC(=O)N3CCN(C4CCC4)CC3)CC2)cc1 [Compound 598, 1-cyclobutyl-4-({4-[4-(ethylthio)benzoyl]piperazin-1-yl}acetyl)piperazine]"
3,> 90,"CSc1ccc(C(=O)N2CCN(CC(=O)N3CCN(C4CCC4)CC3)CC2)cc1 [Compound 600, 1-cyclobutyl-4-({4-[4-(methylthio)benzoyl]piperazin-1-yl}acetyl)piperazine]"
4,> 90,"O=C(CN1CCN(C(=O)c2ccc(C(F)(F)F)cc2)CC1)N1CCN(C2CCC2)CC1 [Compound 605, 1-cyclobutyl-4-({4-[4-(trifluoromethyl)benzoyl]piperazin-1-yl}acetyl)piperazine]"
5,> 90,"O=C(CN1CCN(C(=O)c2ccc(Oc3cc(Cl)cc(Cl)c3)o2)CC1)N1CCN(C2CCC2)CC1 [Compound 608, 1-cyclobutyl-4-({4-[5-(3,5-dichlorophenoxy)-2-furoyl]piperazin-1-yl}acetyl)piperazine]"
6,> 90,"O=C(CN1CCN(C(=O)C(c2ccccc2)C2CCCCC2)CC1)N1CCN(C2CCC2)CC1 (stereo not drawn) [Compound 612, 1-cyclobutyl-4-({4-[cyclohehexyl(phenyl)acetyl]piperazin-1-yl}acetyl)piperazine]"
7,> 90,"O=C(CN1CCN(C(=O)C(c2ccccc2)C2CCCC2)CC1)N1CCN(C2CCC2)CC1 (stereo not drawn) [Compound 613, 1-cyclobutyl-4-({4-[cyclopentyl(phenyl)acetyl]piperazin-1-yl}acetyl)piperazine]"
8,> 90,"O=C(/C=C/c1ccccc1C(F)(F)F)N1CCN(CC(=O)N2CCN(C3CCC3)CC2)CC1 [Compound 614, 1-cyclobutyl-4-[(4-{(2E)-3-[2-(trifluoromethyl)phenyl]prop-2-enoyl}piperazin-1-yl)acetyl]piperazine]"
9,> 90,"O=C(/C=C/c1cccc(C(F)(F)F)c1)N1CCN(CC(=O)N2CCN(C3CCC3)CC2)CC1 [Compound 615, 1-cyclobutyl-4-[(4-{(2E)-3-[3-(trifluoromethyl)phenyl]prop-2-enoyl}piperazin-1-yl)acetyl]piperazine]"
10,> 90,"O=C(/C=C/c1ccc(C(F)(F)F)cc1)N1CCN(CC(=O)N2CCN(C3CCC3)CC2)CC1 [Compound 616, 1-cyclobutyl-4-[(4-{(2E)-3-[4-(trifluoromethyl)phenyl]prop-2-enoyl}piperazin-1-yl)acetyl]piperazine]"
11,> 90,"Cc1ccc(Oc2ncccc2C(=O)N2CCN(CC(=O)N3CCN(C4CCC4)CC3)CC2)c(C)c1 [Compound 617, 1-cyclobutyl-4-[(4-{[2-(2,4-dimethylphenoxy)pyridin-3-yl]carbonyl}piperazin-1-yl)acetyl]piperazine]"
12,> 90,"CCSc1ncccc1C(=O)N1CCN(CC(=O)N2CCN(C3CCC3)CC2)CC1 [Compound 618, 1-cyclobutyl-4-[(4-{[2-(ethylthio)pyridin-3-yl]carbonyl}piperazin-1-yl)acetyl]piperazine]"
13,> 90,CSc1ncccc1C(=O)N1CCN(CC(=O)N2CCN(C3CCC3)CC2)CC1 [Compound 619]
